Data as given in patent publication US20110003382A1, “USE OF CORTICOSTERONE FOR INCREASING EGG ANTIBODY” (WISCONSIN ALUMNI RESEARCH FOUNDATION, priority 2009, published 2011).

Tests used:
[1] = system: mice; conditions: exogenous corticosterone; cited from earlier work
[2] = system: laying hens; conditions: cited from earlier work
[3] = system: Single Comb White Leghorn hens; assay: Anti-PLA2 antibody titer in serum of immunized hens by ELISA; format: in vivo; conditions: weeks 2 to 3 after primary immunization
Text: In all Examples, Single Comb White Leghorn hens (SCWL) used were transported as pullets (18- to 22-weeks of age) from S&R Farms (Whitewater, Wis.) to University of Wisconsin—Madison Poultry Research Laboratory. Hens were individually housed in cages with raised bottom floors for at least four weeks before being assigned to an Example, and were 26- to 60-weeks of age at the beginning of experiments. Hens were fed, ad libitum, a standard corn-soybean meal based laying hen diet formulated to meet nutritional requirements. Housing was maintained under an automated lighting schedule with 16:8-h light-dark cycle. All procedures involving animals were approved by Animal Care Committee at University of Wisconsin, Madison.
The antigen selected for comparing the antibody response of hens was a 13 kDa soluble protein antigen, phospholipase A2 (PLA2) purified from porcine pancreas (Novozyme, Bagsvaerd, Denmark; greater than 90% purity based on SDS-PAGE). PLA2 was used because of its commercial relevance, and its previous use as a model antigen for studying hen antibody response (Trott, et al., 2008, “Additions of killed whole cell bacteria preparations to Freund complete adjuvant alter laying hen antibody response to soluble protein antigen,” Poult. Sci., 87(5):912-917). […]
Anti-PLA2 antibody content of egg yolk and serum samples were measured by an ELISA (Trott, et al., 2008). […]

[4] = system: Single Comb White Leghorn hens; assay: Body weight change (% initial BW); format: in vivo
Method: (§1) Measurement of body weight and egg production. […] Initial body weight of adult laying hens, 26- to 60-weeks of age, was reported when measured at the beginning of experiments. Data were expressed as a percentage of initial body weight (% initial BW) to determine effects of CORT on change in body weight. Eggs produced were recorded daily for each hen. Laying frequency (or egg production) of each hen during each 7 day period measured, was obtained by dividing the total number of eggs laid by 7.

[5] = system: chicken; conditions: feeding CORT 20-80 mg/kg diet; cited from earlier work
[6] = system: Single Comb White Leghorn hens; assay: Egg production (laying frequency); format: in vivo
Method: as §1

[7] = Example 3: CORT 5 days, week 1 after diet administration
[8] = Example 4: CORT 6 days, weeks 4 to 10 after primary immunization

SMILES: C[C@]12C[C@H](O)[C@H]3[C@@H](CCC4=CC(=O)CC[C@@]43C)[C@@H]1CC[C@@H]2C(=O)CO [CORT, corticosterone]
- mouse T-dependent antibody response to sheep erythrocytes [1]: increased
- egg production ([2]; after 1 week of dietary CORT 20-40 mg/kg diet): completely suppressed
- effect on egg production in laying hens ([2]; dietary CORT 30 mg/kg diet for 1 week): negatively affect
- additional time out of production after removal of CORT ([2]; dietary CORT 20-40 mg/kg diet for 1 week): 9 to 12 days
- serum antibody titer (Log2 titer) ([3]; Example 4: CORT 30 mg/kg diet for 6 days beginning on day 1 before primary immunization): 17.65 Log2 titer
- fold higher serum antibody titer vs control hens ([3]; Example 4: CORT 6 days, p=0.008): 4.9 fold
- effect of CORT on body weight (% initial BW) vs control-fed hens ([4]; Example 3: CORT 5 days, p=0.27): no effect
- body weight higher than initial body weight [4, 7]: 11.4%
- body weight higher than initial body weight ([4]; Example 3: CORT 5 days, week 2): 10.5%
- body weight vs initial body weight ([4]; Example 3: CORT 5 days, week 5 after diet administration, p=0.57): not different from initial body weight
- body weight higher than initial body weight ([4]; Example 4: CORT 6 days, weeks 1 to 3 after diet administration): 13.3%
- number of circulating lymphocytes in chicken blood [5]: markedly decreased
- decrease in egg production between week 1 before and week 1 after diet administration ([6]; Example 3: CORT 5 days, p=0.004): 21%
- overall difference in egg production vs control-fed hens ([6]; Example 3: CORT 5 days, p=0.57): no overall difference
- egg production, overall ([6]; Example 3: CORT 5 days, throughout the Example): 73%
- egg production [6, 7]: 50%
- egg production less than control-fed hens ([6]; Example 3: CORT 5 days, week 1 after diet administration, p=0.005): 34%
- egg production ([6]; Example 3: CORT 5 days, week 2): 62%
- egg production less than control-fed hens ([6]; Example 3: CORT 5 days, week 2, p=0.014): 29%
- overall egg production less than control-fed hens ([6]; Example 4: CORT 6 days): 35%
- egg production suppressed vs control-fed hens ([6]; Example 4: CORT 6 days, week 1 after diet administration): 50%
- egg production suppressed vs control-fed hens ([6]; Example 4: CORT 6 days, week 2 after diet administration): 100%
- egg production suppressed vs control-fed hens ([6]; Example 4: CORT 6 days, week 3 after diet administration): 80%
- overall egg production ([6]; Example 4: CORT 6 days, weeks 0 to 10): 54%
- egg production [6, 8]: 69%
- egg production lower than control-fed hens [6, 8]: 17%
- overall egg production ([6]; Example 5: CORT 9 days): 39%
- overall egg production less than control-fed hens ([6]; Example 5: CORT 9 days): 31%
- egg production suppressed vs control-fed hens ([6]; Example 5: CORT 9 days, week 4 after diet administration): 80%
- egg production ([6]; Example 5: CORT 9 days, week 5 after diet administration): 45%
- egg production lower than control-fed hens ([6]; Example 5: CORT 9 days, week 5 after diet administration, p=0.007): 50%
- egg production suppressed vs control-fed hens ([6]; Example 5: CORT 9 days, weeks 2 and 3 after diet administration): 60%
- egg production ([6]; Example 5: CORT 9 days, weeks 6 to 11 after primary immunization): 53%
- egg production lower than control-fed hens ([6]; Example 5: CORT 9 days, weeks 6 to 11 after primary immunization, p=0.001): 14%
